Laboratory results as given in PMC4203769, “The “Genomic Storm” Induced by Bacterial Endotoxin Is Calmed by a Nuclear Transport Modifier That Attenuates Localized and Systemic Inflammation” (PLoS ONE, 2014).
Where “and” joins values, the source holds several entries; their conditions need not be identical. Identical values can stand only once. Entries after “also recorded” stand apart in the source; their conditions may differ. Positions of bridges follow the written chain, without caps; N, C: chain ends. Residues, ends and D or L forms follow the SMILES beside them.

What was measured:
[1] = test system: primary macrophages challenged with LPS; assay: Cell viability of LPS-challenged primary macrophages; type: cell-based, mouse (C57BL/6); details: LPS-challenged BMDMs, 30 µM peptide; data not shown; listed as NTM
[2] = test system: mouse blood cells and organs; details: after i.p. injection; receptor- and endocytosis-independent mechanism; cited from earlier work
Protocol: NTM is rapidly delivered (within 30–60 min after i.p. injection) through a receptor-and endocytosis-independent mechanism to mouse blood cells and organs where it reaches sufficient intracellular concentration to engender localized (lung) and systemic (endotoxic shock) anti-inflammatory effects. Thus, the microvascular compartment of multiple organs that are vulnerable to LPS toxicity (e.g. lungs, liver, and kidneys) can be protected, [22]. Unlike anti-inflammatory glucocorticosteroids which produced discordant results in sepsis clinical trials, [33] and have potential ...

[3] = Solubility of peptides in water; type: physicochemical
Source text: A fragment-linked peptide strategy to analyze signal-dependent nuclear transport is based on fusing a motif from the nuclear localization sequence (NLS) region of the NF-κB1/p50 subunit with the signal sequence hydrophobic region (SSHR) of human fibroblast growth factor 4 [7], [19]. NLS- and SSHR-containing NTMs (SN50, cSN50 and cSN50.1; see Table 1 for their composition and solubility) were designed to function at the nuclear transport level by binding to importins α during stimulus-initiated signaling and thereby modulate nuclear import of NLS-bearing SRTFs. The SSHR motif allows peptides to cross the plasma membrane of cells in culture or in experimental animals through an ATP- and endosome-independent mechanism. […] The functional utility of NTMs has been reported in numerous preclinical models of inflammation caused by microbial and autoimmune insults, [21]–[26].

SMILES: CSCC[C@@H]1NC(=O)[C@H](CC(C)C)NC(=O)[C@H](CCCCN)NC(=O)[C@H](CCC(N)=O)NC(=O)[C@H](CCCNC(=N)N)NC(=O)[C@H](CCCCN)NC(=O)[C@H](CCCNC(=N)N)NC(=O)[C@H](CCC(N)=O)NC(=O)[C@H](C(C)C)NC(=O)[C@@H](NC(=O)[C@@H]2CCCN2C(=O)[C@H](C)NC(=O)[C@H](CC(C)C)NC(=O)[C@H](CC(C)C)NC(=O)[C@H](C)NC(=O)[C@H](CC(C)C)NC(=O)[C@H](CC(C)C)NC(=O)[C@@H](NC(=O)[C@H](C)NC(=O)[C@@H]2CCCN2C(=O)[C@H](CC(C)C)NC(=O)[C@H](CC(C)C)NC(=O)[C@H](C)NC(=O)[C@@H](NC(=O)[C@H](C)NC(=O)[C@H](C)N)C(C)C)C(C)C)CSSC[C@@H](C(=O)O)NC(=O)[C@@H]2CCCN2C1=O [cSN50.1] (H-AAVALLPAVLLALLAPCVQRKRQKLMPC-OH; disulfide 17-28)
- effect on cell viability / cytotoxicity [1]: without altering expression of housekeeping genes or being cytotoxic; also recorded: not associated with changes in cell viability
- time to delivery to mouse blood cells and organs [2]: 30 to 60 min
- Solubility in Water [3]: 100 mg/mL and 33.5 mM

SMILES: CSCC[C@@H]1NC(=O)[C@H](CC(C)C)NC(=O)[C@H](CCCCN)NC(=O)[C@H](CCC(N)=O)NC(=O)[C@H](CCCNC(=N)N)NC(=O)[C@H](CCCCN)NC(=O)[C@H](CCCNC(=N)N)NC(=O)[C@H](CCC(N)=O)NC(=O)[C@H](C(C)C)NC(=O)[C@H](Cc2ccc(O)cc2)NC(=O)[C@@H](NC(=O)[C@@H]2CCCN2C(=O)[C@H](C)NC(=O)[C@H](CC(C)C)NC(=O)[C@H](CC(C)C)NC(=O)[C@H](C)NC(=O)[C@H](CC(C)C)NC(=O)[C@H](CC(C)C)NC(=O)[C@@H](NC(=O)[C@H](C)NC(=O)[C@@H]2CCCN2C(=O)[C@H](CC(C)C)NC(=O)[C@H](CC(C)C)NC(=O)[C@H](C)NC(=O)[C@@H](NC(=O)[C@H](C)NC(=O)[C@H](C)N)C(C)C)C(C)C)CSSC[C@@H](C(=O)O)NC(=O)[C@@H]2CCCN2C1=O [cSN50, reference compound] (H-AAVALLPAVLLALLAPCYVQRKRQKLMPC-OH; disulfide 17-29)
- Solubility in Water [3]: 38 mg/mL and 12.1 mM
